Species on record: Rattus norvegicus
Assay: DrugMatrix - Regimen: Daily Repeat
Format: toxicity, organism-based, Sprague-Dawley
Parameters: regimen Daily Repeat, gender Male, age 6-8 weeks
Details: in vivo, po, route oral GAVAGE, vehicle 100 % SALINE; for ABSOLUTE BASOPHIL / ABSOLUTE EOSINOPHIL / ABSOLUTE LYMPHOCYTE / ABSOLUTE MONOCYTE / ABSOLUTE SEGMENTED NEUTROPHIL / BASOPHIL / EOSINOPHIL / ERYTHROCYTE COUNT / HEMATOCRIT / HEMOGLOBIN / LEUKOCYTE COUNT / LYMPHOCYTE / MEAN CORPUSCULAR HEMOGLOBIN / MEAN CORPUSCULAR HEMOGLOBIN CONCENTRATION / MEAN CORPUSCULAR VOLUME / MONOCYTE / NEUTROPHIL / NUCLEATED RED BLOOD CELLS / PLATELET COUNT: tissue Blood; for ALANINE AMINOTRANSFERASE / ALBUMIN / ALKALINE PHOSPHATASE / ASPARTATE AMINOTRANSFERASE / BLOOD UREA NITROGEN / CARBON DIOXIDE / CHLORIDE / CHOLESTEROL / CREATINE PHOSPHOKINASE / CREATININE / GLUCOSE / LACTATE DEHYDROGENASE / LIPASE / PHOSPHORUS / POTASSIUM / SODIUM / TOTAL BILIRUBIN / TOTAL PROTEIN / URIC ACID: tissue Plasma
[1] = 0 mg/kg, 72 h, dose level Control, time 3 day
[2] = 0 mg/kg, […], dose level Control, time 7 day
[3] = 10 mg/kg, 72 h, dose level Low, time 3 day

## O=[As][O-].[Na+] [SODIUM ARSENITE]
[1]
  ABSOLUTE BASOPHIL: 0 CELLS/uL
  ABSOLUTE EOSINOPHIL: 66 CELLS/uL
  ABSOLUTE LYMPHOCYTE: 11922.83 CELLS/uL
  ABSOLUTE MONOCYTE: 401.5 CELLS/uL
  ABSOLUTE SEGMENTED NEUTROPHIL: 1526.33 CELLS/uL
  BASOPHIL: 0%
  EOSINOPHIL: 0.5%
  ERYTHROCYTE COUNT: 5.62 x10E6/uL
  HEMATOCRIT: 37.17%
  HEMOGLOBIN: 13.53 G/DL
  LEUKOCYTE COUNT: 13.92 x10E3/uL
  LYMPHOCYTE: 86.17%
  MEAN CORPUSCULAR HEMOGLOBIN: 24.07 pg
  MEAN CORPUSCULAR HEMOGLOBIN CONCENTRATION: 36.42 G/DL
  MEAN CORPUSCULAR VOLUME: 66.1 fL
  MONOCYTE: 3%
  NEUTROPHIL: 10.33%
  NUCLEATED RED BLOOD CELLS: 0 /100WBC
  PLATELET COUNT: 1107 x10E3/uL
  ALANINE AMINOTRANSFERASE: 45.33 u/L
  ALBUMIN: 4.3 G/DL
  ALKALINE PHOSPHATASE: 321.33 u/L
  ASPARTATE AMINOTRANSFERASE: 77.33 u/L
  BLOOD UREA NITROGEN: 14.33 mg/dL
  CARBON DIOXIDE: 32.33 mmol/L
  CHLORIDE: 99.67 MEQ/L
  CHOLESTEROL: 82.33 mg/dL
  CREATINE PHOSPHOKINASE: 205.5 u/L
  CREATININE: 0.19 mg/dL
  GLUCOSE: 150.83 mg/dL
  LACTATE DEHYDROGENASE: 88.17 u/L
  LIPASE: 10.83 u/L
  PHOSPHORUS: 10.9 mg/dL
  POTASSIUM: 5.83 MEQ/L
  SODIUM: 145.15 MEQ/L
  TOTAL BILIRUBIN: 0.12 mg/dL
  TOTAL PROTEIN: 6.22 G/DL
  URIC ACID: 1 mg/dL
[2]
  ABSOLUTE BASOPHIL: 0 CELLS/uL
  ABSOLUTE EOSINOPHIL: 22 CELLS/uL
  ABSOLUTE LYMPHOCYTE: 11105.17 CELLS/uL
  ABSOLUTE MONOCYTE: 258.17 CELLS/uL
  ABSOLUTE SEGMENTED NEUTROPHIL: 881.33 CELLS/uL
  BASOPHIL: 0%
  EOSINOPHIL: 0.17%
  ERYTHROCYTE COUNT: 5.29 x10E6/uL
  HEMATOCRIT: 34.03%
  HEMOGLOBIN: 13.67 G/DL
  LEUKOCYTE COUNT: 12.27 x10E3/uL
  LYMPHOCYTE: 90.83%
  MEAN CORPUSCULAR HEMOGLOBIN: 25.9 pg
  MEAN CORPUSCULAR HEMOGLOBIN CONCENTRATION: 40.18 G/DL
  MEAN CORPUSCULAR VOLUME: 64.42 fL
  MONOCYTE: 2.17%
  NEUTROPHIL: 6.83%
  NUCLEATED RED BLOOD CELLS: 0 /100WBC
  PLATELET COUNT: 1159.83 x10E3/uL
  ALANINE AMINOTRANSFERASE: 45.83 u/L
  ALBUMIN: 4.1 G/DL
  ALKALINE PHOSPHATASE: 240 u/L
  ASPARTATE AMINOTRANSFERASE: 88.67 u/L
  BLOOD UREA NITROGEN: 13.67 mg/dL
  CARBON DIOXIDE: 31.83 mmol/L
  CHLORIDE: 96.83 MEQ/L
  CHOLESTEROL: 71.17 mg/dL
  CREATINE PHOSPHOKINASE: 202.5 u/L
  CREATININE: 0.22 mg/dL
  GLUCOSE: 132.67 mg/dL
  LACTATE DEHYDROGENASE: 107.17 u/L
  LIPASE: 10.5 u/L
  PHOSPHORUS: 10.47 mg/dL
  POTASSIUM: 6.23 MEQ/L
  SODIUM: 140.73 MEQ/L
  TOTAL BILIRUBIN: 0.12 mg/dL
  TOTAL PROTEIN: 6.18 G/DL
  URIC ACID: 0.87 mg/dL
[3]
  ABSOLUTE BASOPHIL: 0 CELLS/uL
  ABSOLUTE EOSINOPHIL: 54.67 CELLS/uL
  ABSOLUTE LYMPHOCYTE: 10489.83 CELLS/uL
  ABSOLUTE MONOCYTE: 135 CELLS/uL
  ABSOLUTE SEGMENTED NEUTROPHIL: 1470.5 CELLS/uL
  BASOPHIL: 0%
  EOSINOPHIL: 0.5%
  ERYTHROCYTE COUNT: 5.25 x10E6/uL
  HEMATOCRIT: 34.42%
  HEMOGLOBIN: 12.32 G/DL
  LEUKOCYTE COUNT: 12.15 x10E3/uL
  LYMPHOCYTE: 86.33%
  MEAN CORPUSCULAR HEMOGLOBIN: 23.48 pg
  MEAN CORPUSCULAR HEMOGLOBIN CONCENTRATION: 35.82 G/DL
  MEAN CORPUSCULAR VOLUME: 65.58 fL
  MONOCYTE: 1.17%
  NEUTROPHIL: 12%
  NUCLEATED RED BLOOD CELLS: 0.17 /100WBC
  PLATELET COUNT: 1089.17 x10E3/uL
  ALANINE AMINOTRANSFERASE: 43.5 u/L
  ALBUMIN: 4.08 G/DL
  ALKALINE PHOSPHATASE: 226.5 u/L
  ASPARTATE AMINOTRANSFERASE: 76.83 u/L
  BLOOD UREA NITROGEN: 10.5 mg/dL
  CARBON DIOXIDE: 25.83 mmol/L
  CHLORIDE: 100.17 MEQ/L
  CHOLESTEROL: 72 mg/dL
  CREATINE PHOSPHOKINASE: 296.17 u/L
  CREATININE: 0.2 mg/dL
  GLUCOSE: 151.5 mg/dL
  LACTATE DEHYDROGENASE: 177.33 u/L
  LIPASE: 10.33 u/L
  PHOSPHORUS: 11.43 mg/dL
  POTASSIUM: 5.33 MEQ/L
  SODIUM: 142.73 MEQ/L
  TOTAL BILIRUBIN: 0.15 mg/dL
  TOTAL PROTEIN: 5.93 G/DL
  URIC ACID: 1 mg/dL
